Results as given in publication PMC7497086, “Fluorophore‐Labeled Cyclic Nucleotides as Potent Agonists of Cyclic Nucleotide‐Regulated Ion Channels” (Chembiochem, 2020).

Experiments:
Assay type in all cases: biochemical
[1] = target: T1, Heterotetrameric CNGA2:A4:B1b channels (Rattus norvegicus, UniProt A0A8I5ZN27+Q00195+Q64359); assay: Patch-clamp activation of heterotetrameric olfactory CNGA2:A4:B1b channels, inside-out patches of Xenopus oocytes; conditions: inside-out patches, +10 mV
T1 construct: expressed in transfected cells; host or cells: Xenopus laevis oocytes injected with cRNA (CNGA2:CNGA4:CNGB1b at 2:1:1)
Description: First, the effect of the compounds on olfactory CNG channels with natural composition was tested. […] To determine the potency of the ligands, full concentration‐activation relationships were generated. These relationships were fitted with Equation 1 (Experimental Section), yielding the concentration of half maximum activation (EC 50) and the Hill coefficient (H a).
(§1) Molecular biology and heterologous expression of CNG and HCN channels: The subunits CNGA2 (accession No. AF126808), CNGA4 (accession no. U12623) and CNGB1b (accession no. AF068572) of rat olfactory channels as well as mouse HCN2 channels (NM008226) were subcloned in front of the T7 promoter of pGEMHEnew. The corresponding cRNAs were produced with the mMESSAGE mMACHINE T7 Kit (Ambion, Austin, TX, USA).
(§2) Oocytes at stages IV and V were injected with 50–130 ng cRNA encoding either CNGA2, CNGA2 : CNGA4 : CNGB1b (2 : 1 : 1 ratio) or HCN2 channels either manually or mediated by an injection robot (RoboInject®). The injected oocytes were incubated at 18 °C for up to 6 days in Barth's medium containing (in mM) 84 NaCl, 1 KCl, 2.4 NaHCO3, 0.82 MgSO4, 0.41 CaCl2, 0.33 Ca(NO3)2, 7.5 TRIS, cefuroxime (4.0 μg/mL) and penicillin/streptomycin (100 μg/mL), pH 7.4.
(§3) Electrophysiology: Macroscopic currents were recorded in inside‐out patches of the oocytes expressing hundreds to several thousand of the desired channels by using the patch‐clamp technique. The patch pipettes were pulled from quartz tubing (P‐2000, Sutter Instrument, Novato, USA) with an outer and inner diameter of 1.0 and 0.7 mm (VITROCOM, New Jersey, USA). The corresponding pipette resistance was 0.9–2.3 MΩ. The bath and pipette solution contained (in mM): 150 KCl, 1 EGTA, 20 HEPES (pH 7.4) for CNG channel measurements. For HCN channel measurements the bath solution contained (in mM): 100 KCl, 10 EGTA, 10 HEPES (pH 7.2) and the pipette (in mM) 120 KCl, 10 HEPES, 1 CaCl2 (pH 7.2). All experiments were performed at room temperature by using an Axopatch 200B amplifier (Axon Instruments, Foster City, CA, USA). Electrophysiology was controlled by the Patchmaster‐software (HEKA Elektronik Dr. Schulze GmbH, Lambrecht, Germany). The sampling rate was 5 kHz and the filter implemented in the amplifier (4‐pole Bessel) was set to 2 kHz. Measurements in HCN2 channels were started 3.5 minutes after patch excision, to minimize run down phenomena.18 The solutions with the different ligand concentrations to be studied were applied by a multi‐barrel device to the patches with a flow rate of 0.8 to 1.2 mL/min. The concentration of the fluorescent ligands was verified by UV/Vis spectroscopy.
(§4) where I is the actual current amplitude and I max the maximum current amplitude at saturating concentration of each cyclic nucleotide. EC 50 is the ligand concentration generating half maximum current and H a the respective Hill coefficient.

[2] = target: T2, Homotetrameric CNGA2 channels (Rattus norvegicus, UniProt Q00195); assay: Patch-clamp activation of homotetrameric CNGA2 channels, inside-out patches of Xenopus oocytes
T2 construct: expressed in transfected cells; host or cells: Xenopus laevis oocytes injected with CNGA2 cRNA
T2 sequence (Q00195 1-664): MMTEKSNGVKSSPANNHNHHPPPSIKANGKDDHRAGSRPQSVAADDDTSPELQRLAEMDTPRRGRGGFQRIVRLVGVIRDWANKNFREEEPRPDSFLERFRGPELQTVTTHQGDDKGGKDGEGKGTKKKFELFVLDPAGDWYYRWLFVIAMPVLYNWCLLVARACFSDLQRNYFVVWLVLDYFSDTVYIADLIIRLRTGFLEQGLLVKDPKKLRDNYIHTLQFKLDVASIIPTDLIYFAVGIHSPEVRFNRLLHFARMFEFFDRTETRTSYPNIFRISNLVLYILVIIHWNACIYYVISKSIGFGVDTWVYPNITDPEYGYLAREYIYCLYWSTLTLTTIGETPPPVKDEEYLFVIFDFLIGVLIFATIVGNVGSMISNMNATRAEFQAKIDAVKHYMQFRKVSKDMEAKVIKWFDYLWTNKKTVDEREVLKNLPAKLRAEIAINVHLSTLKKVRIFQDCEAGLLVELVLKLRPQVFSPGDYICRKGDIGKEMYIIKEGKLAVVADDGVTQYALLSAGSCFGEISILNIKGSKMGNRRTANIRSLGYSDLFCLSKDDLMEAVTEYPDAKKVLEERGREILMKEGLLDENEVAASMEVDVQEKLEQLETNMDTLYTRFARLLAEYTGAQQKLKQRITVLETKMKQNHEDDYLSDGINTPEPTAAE
From the text: Moreover, we studied the effect of the nucleotide derivatives on homotetrameric CNGA2 channels.
as §1, §2, §3, §4

[3] = target: T3, heterotetrameric olfactory CNG channels (Rattus norvegicus, UniProt A0A8I5ZN27+Q00195+Q64359); assay: Confocal patch-clamp fluorometry (cPCF): ligand binding and activation, heterotetrameric CNG channels; conditions: Figure 4A
T3 construct: expressed in transfected cells; host or cells: Xenopus laevis oocytes injected with cRNA (CNGA2:CNGA4:CNGB1b at 2:1:1)
From the text: (§5) As expected from the above data, the binding profile of 10 was similar for the two different types of ion channels, yielding similar BC 50 and H b values.
(§6) Confocal patch‐clamp fluorometry: Ionic current and binding of the fluorescent ligand in macropatches were simultaneously measured by cPCF as described before.2a, 2b The patch pipettes were pulled from borosilicate glass tubing with an outer and inner diameter of 2.0 and 1.0 mm (Hilgenberg GmbH, Malsfeld, Germany). After fire polishing, the corresponding pipette resistance was 0.7–1.2 MΩ. The bath and pipette solution contained (in mM): 150 KCl, 1 EGTA, 5 HEPES (pH 7.4) for CNG channel measurements. To distinguish the fluorescence of the unbound fluorescent ligand from that of the bound fluorescent ligands, the fluorescent dye DY647 was added to the bath solution at a concentration of 5 μM. The fluorescent ligand and DY647 were excited at 543 and 633 nm, respectively, with a HeNe laser system and an AchroGate beam splitter. Fluorescence intensity from the bath and pipette solution were normalized on each other and the surplus of the green fluorescence of the patch dome with respect to the red fluorescence was used to quantify the bound ligands. The actual relative fluorescence (F) was normalized in each patch with respect to the maximum relative fluorescence (F max) at a saturating concentration of the fluorescent ligand. […]

[4] = target: T4, homotetrameric olfactory CNG channels (Rattus norvegicus, UniProt Q00195); assay: Confocal patch-clamp fluorometry (cPCF): ligand binding and activation, homotetrameric CNG channels; conditions: Figure 4B
T4 construct: expressed in transfected cells; host or cells: Xenopus laevis oocytes injected with CNGA2 cRNA
T4 sequence (Q00195 1-664): T2 sequence (Q00195 1-664)
From the text: as §5, §6

[5] = unit only in the axis title [10] (μM)

T3 sequence (Q64359 whole entry, one chain of several): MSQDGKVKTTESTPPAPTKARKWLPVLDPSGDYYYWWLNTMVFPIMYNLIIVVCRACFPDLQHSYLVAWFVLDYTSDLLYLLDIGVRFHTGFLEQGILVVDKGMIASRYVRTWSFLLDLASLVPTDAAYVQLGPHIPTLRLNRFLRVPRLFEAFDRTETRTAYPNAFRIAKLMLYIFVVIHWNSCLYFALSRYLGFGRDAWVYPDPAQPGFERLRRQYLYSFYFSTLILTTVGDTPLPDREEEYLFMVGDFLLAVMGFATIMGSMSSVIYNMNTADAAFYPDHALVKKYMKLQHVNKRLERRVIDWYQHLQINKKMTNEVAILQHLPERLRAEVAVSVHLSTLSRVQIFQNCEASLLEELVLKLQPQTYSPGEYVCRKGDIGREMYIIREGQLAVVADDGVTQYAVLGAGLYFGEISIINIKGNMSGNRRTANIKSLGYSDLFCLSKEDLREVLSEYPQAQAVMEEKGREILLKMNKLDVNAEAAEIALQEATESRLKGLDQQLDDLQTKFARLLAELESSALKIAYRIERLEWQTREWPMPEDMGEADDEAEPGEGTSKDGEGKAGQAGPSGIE
T3 sequence (A0A8I5ZN27 1-858 isoform A0A8I5ZN27-2, one chain of several): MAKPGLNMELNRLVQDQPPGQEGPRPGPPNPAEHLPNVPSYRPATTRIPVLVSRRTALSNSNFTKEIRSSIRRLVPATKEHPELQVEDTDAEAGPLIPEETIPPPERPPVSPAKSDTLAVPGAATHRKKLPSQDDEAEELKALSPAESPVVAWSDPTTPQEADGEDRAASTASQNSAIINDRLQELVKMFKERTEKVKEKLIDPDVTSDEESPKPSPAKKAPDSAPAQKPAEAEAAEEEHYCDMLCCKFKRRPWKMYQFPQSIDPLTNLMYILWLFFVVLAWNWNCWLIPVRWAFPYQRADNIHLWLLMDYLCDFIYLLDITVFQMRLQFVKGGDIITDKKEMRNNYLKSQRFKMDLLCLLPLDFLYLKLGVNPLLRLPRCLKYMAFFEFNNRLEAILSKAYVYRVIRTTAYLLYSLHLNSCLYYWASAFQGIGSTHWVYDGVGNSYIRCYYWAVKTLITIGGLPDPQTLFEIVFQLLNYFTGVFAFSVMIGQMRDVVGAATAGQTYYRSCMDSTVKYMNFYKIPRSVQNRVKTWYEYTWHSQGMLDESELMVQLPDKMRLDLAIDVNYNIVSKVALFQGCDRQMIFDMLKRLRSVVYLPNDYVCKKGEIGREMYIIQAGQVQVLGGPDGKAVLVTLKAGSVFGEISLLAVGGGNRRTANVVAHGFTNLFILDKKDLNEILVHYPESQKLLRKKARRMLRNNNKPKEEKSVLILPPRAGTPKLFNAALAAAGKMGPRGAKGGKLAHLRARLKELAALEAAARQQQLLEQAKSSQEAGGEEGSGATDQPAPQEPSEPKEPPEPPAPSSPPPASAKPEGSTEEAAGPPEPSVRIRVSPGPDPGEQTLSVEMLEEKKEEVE
T1 sequence (Q64359 whole entry, one chain of several): as the sequence (Q64359 whole entry, one chain of several) above
T1 sequence (A0A8I5ZN27 1-858 isoform A0A8I5ZN27-2, one chain of several): as the sequence (A0A8I5ZN27 1-858 isoform A0A8I5ZN27-2, one chain of several) above

Q: With CC1(C)C2=C3C=C4C5=[N+](CCC4OC3CCN2c2ccc(CC(=O)NCCCCCc3ccc(Sc4nc6c(=O)[nH]c(N)nc6n4[C@@H]4O[C@@H]6COP(=O)(O)O[C@H]6[C@H]4O)cc3)cc21)c1ccc(S(=O)(=O)[O-])cc1C5(C)C (stereo partly drawn) [Compound 10] as the compound, how does the “H a (Hill coefficient of activation)” value [1] read?
A: The value was 2.32±0.16.

Q: And the EC50 ([1]; concentration of half maximum activation)?
A: The EC50 was 630 ± 20 nM.

Q: What about the “EC 50 (in words)” value [2] of the same compound?
A: The value was “nanomolar range”.

Q: What about the “H a (Hill coefficient of activation)” value ([2]; inside-out patches) of the same compound?
A: Its value is 4.03±0.12.

Q: And the EC50 ([2]; inside-out patches, concentration of half maximum activation)?
A: The EC50 was 650 ± 10 nM.

Q: And the “Hb (Hill coefficient of binding, cPCF)” value [3]?
A: Its value is 1.55.

Q: And the EC50 [3, 5]?
A: Its EC50 is 1.03 ± 0.04 µM.

Q: What about the “Hb (Hill coefficient of binding, cPCF)” value [4] of the same compound?
A: Its value is 1.43.

Q: And the EC50 [4, 5]?
A: Its EC50 is 1.17 ± 0.07 µM.
